Measurements reported in patent publication US8785594B2, “Glycoproteins and glycosylated cells and a method for the preparation of the same” (Glycom A/S, priority 2007, dated 2014).
Marks after values point to notes of the source that are not given here.

Experiments:
Type in all cases: cell-based
B16.BL6 melanoma cells [1] = experiment: Scintillation, estimation of epitopes per cell (Example 14)
Protocol: (§1) Radioactive labelled and regular trisaccharide probe was dissolved in HBSS containing D-glucose (without Mg^2+ and Ca^2+) (Gibco Invitrogen, Taastrup, Denmark) and passed through sterile filters (0.2 μm Supor® Acrodisc® 13, Gelman Sciences, Ann Arbor, Mich.). Four different concentrations of each “Glycom conjugate” (25 mg, 5 mg, 1 mg and 0.1 mg) were made. Twelve flasks (150 cm^2) (TPP, Trasadingen Switzerland) were prepared each containing a total of 10×10^6 B16.BL6 cells. The trisaccharide probe was added and the total volume was adjusted to 20 mL with HBSS containing D-glucose (without Mg^2+ and Ca^2+). The cells were incubated with the “Glycom conjugate” for 1.5 hours at 37° C. After conjugation, the supernatant from each flask was transferred to separate 50 mL tubes (TPP, Trasadingen Switzerland). The cells were harvested with Cell Dissociation Solution C5914 (5 mL per flask) (Sigma-Aldrich, Saint Louis, Mo. and transferred to the 50 mL tubes containing the supernatant. The cells were centrifuged for 3 minutes at 300 G at 20° C. and resuspended in 5 mL of PBS (without Mg^2+ and Ca^2+). This was repeated 3 times before cell concentration and viability was determined by microscopical evaluation of trypan blue stained cell samples.
Cells conjugated with radioactive labelled trisaccharide probe were centrifuged for 5 minutes at 1000 G at 20° C. The supernatants were discharged and the remaining pellets were dried. Subsequently, the pellets were dissolved in 400 μl Mili-Q H2O and 1.5 mL of scintillation fluid was added. Standards for the scintillation were made by adding 500 pCi, 0.5 pCi and 0 pCi to the 3 samples of control cells. The samples were stored at room temperature for 3 days, before the cell suspensions were transferred to scintillation vials and counted.

B16.BL6 melanoma cells [2] = experiment: Flow cytometry with FITC-labelled GS1B4 (Example 13)
Protocol: The alpha-Gal trisaccharide probe (9) was dissolved in HBSS (Gibco Invitrogen, Taastrup, Denmark) and passed through a sterile filter (0.2 μm Supor® Acrodisc® 13, Gelman Sciences, Ann Arbor, Mich.). Three different concentrations of the alpha-Gal trisaccharide-carbamate (9) were made. Five small flasks were prepared with 606 μL of cell suspension containing a total of 10^6 B16.BL6 cells in addition to 4 mL of one of the conjugate solutions. Each flask contained a total volume of 4.6 mL. The cells were incubated with the “Glycom conjugate” for either 3 or 1.5 hours at 37° C.
After conjugation, the supernatant from each flask was transferred to separate 10 mL tubes (TPP, Trasadingen Switzerland). Cells were washed twice by adding PBS to the flasks and immediately removing it again. The cells were harvested with Cell Dissociation Solution (2 mL per flask) (Sigma-aldrich, Saint Louis, Mo.). After 5 minutes, cells were transferred to the 10 mL test tubes. The cells were centrifuged for 5 minutes at 300 G at 20° C. and resuspended in 0.5 mL of PBS. Cell concentration and viability was determined by microscopic evaluation of trypan blue stained cell samples.
One hundred μL of cell suspension containing 1×10^5 cells were incubated for 15 minutes at 4° C. with 10 μg per mL (1:100 dilution) of FITC-labelled GS1B4 in PBS. Rabbit red blood cells (A) were used for comparison,
As very few cells were available for flow cytometry analysis the exact cell concentration was not determined. Instead, the amount of cells used was estimated to 0.4×10^5. The cells were incubated for 15 minutes at 4° C. with 4 μg per mL of FITC-labelled GS1B4 in PBS. Rabbit red blood cells (B) were used for comparison.
Mean and median cell fluorescence intensity was determined by flow cytometry.

B16.BL6 melanoma cells [3] = experiment: Flow cytometry with FITC-labelled GS1B4 (Example 14)
Protocol: as §1
Cells conjugated with regular trisaccharide probe were analysed by flow cytometry. Four hundred μl of each cell suspension containing 2×10^5 cells were incubated for 15 minutes at 4° C. with 10 μg per mL of FITC-labelled GS1B4. Mean fluorescence intensity of cells stained with GS1B4 was measured by flow cytometry.

B16.BL6 melanoma cells [4] = experiment: Flow cytometry with FITC-labelled GS1B4 (Example 15); conditions: all conjugation reactions, 10 μg-20 mg regular probe
Protocol: Radioactive labelled and regular alpha-Gal trisaccharide-carbamate (9) probe (labeled on the cyclic carbamate carbon) was dissolved in HBSS containing D-glucose (without Mg^2+ and Ca^2+) (Gibco Invitrogen, Taastrup, Denmark) and passed through sterile filters (0.2 μm Supor® Acrodisc® 13, Gelman Sciences, Ann Arbor, Mich.). Eight different concentrations of radioactive labelled alpha-Gal trisaccharide-carbamate (9) (1 μg, 10 μg, 100 μg, 1 mg, 5 mg, 10 mg, 15 mg and 20 mg) and […] concentrations of regular “Glycom conjugate” (10 μg, 100 μg, 1 mg, 5 mg, 10 mg, 15 mg and 20 mg) were used. Twelve flasks (300 cm^2) (TPP, Trasadingen Switzerland) were prepared, each containing 10×10^6 B16.BL6 cells, for conjugation with the radioactive labelled trisaccharide probe, and 8 flasks (150 cm^2) (TPP, Trasadingen Switzerland) were prepared, each containing 5×10^6 B16.BL6 cells, for conjugation with the non-radioactive conjugate. […] This was repeated 3 times before cell concentration and viability was determined by microscopic evaluation of trypan blue stained cell samples.
Cells conjugated with regular trisaccharide probe were analysed by flow cytometry. […] Mean fluorescence intensity of cells stained with GS1B4 was measured by flow cytometry.

[5] = reaction 1, 19.2 mg, 3 hours, 10 μg per mL FITC-GS1B4
[6] = reaction 2, 19.2 mg, 1.5 hours, group of 35.3% of the cells
[7] = reaction 2, 19.2 mg, 1.5 hours, group of 62.7% of the cells
[8] = reaction 4, 58 mg, 1.5 hours, group of 15.65% of the cells
[9] = reaction 4, 58 mg, 1.5 hours, group of 84.26% of the cells

## O=[13C]1N[C@@H]2O[C@H](CO)[C@@H](O[C@@H]3O[C@H](CO)[C@H](O)[C@H](O[C@H]4O[C@H](CO)[C@H](O)[C@H](O)[C@H]4O)[C@H]3O)[C@H](O)[C@H]2O1 [radioactive labelled conjugate]
B16.BL6 melanoma cells [1]; 0.1 mg conjugate added
  Epitopes per cell: 3.6 × 10^6
B16.BL6 melanoma cells [1]; 1 mg conjugate added
  Epitopes per cell: 28.3 × 10^6
B16.BL6 melanoma cells [1]; 5 mg conjugate added, cells from supernatant only
  Epitopes per cell: 152.4 × 10^6
B16.BL6 melanoma cells [1]; 25 mg conjugate added, attached cells only
  Epitopes per cell: 364.2 × 10^6
B16.BL6 melanoma cells [1]; 0.1-25 mg
  Relation of scintillation counts to dose of conjugate: positive correlation

## O=C1N[C@@H]2O[C@H](CO)[C@@H](O[C@@H]3O[C@H](CO)[C@H](O)[C@H](O[C@H]4O[C@H](CO)[C@H](O)[C@H](O)[C@H]4O)[C@H]3O)[C@H](O)[C@H]2O1 [Compound 9, alpha-Gal trisaccharide-carbamate]
B16.BL6 melanoma cells [2]; all conjugation reactions (1.9-58 mg, 1.5 or 3 hours)
  Galα1,3Gal epitopes detected by binding of FITC-labelled GS1B4, flow cytometry: found on B16.BL6 cells from all conjugation reactions
B16.BL6 melanoma cells [2]; [5]
  Mean fluorescence intensity: 197.8
  Median fluorescence intensity: 155.4
B16.BL6 melanoma cells [2]; reaction 2, 19.2 mg, 1.5 hours
  Share of the cells in the group of higher fluorescence intensity: 2 (35.3% of the cells)**
  Share of the cells in the group of lower fluorescence intensity: 2 (62.7% of the cells)**
B16.BL6 melanoma cells [2]; [6]
  Mean fluorescence intensity: 2940.2
  Median fluorescence intensity: 2196.8
B16.BL6 melanoma cells [2]; [7]
  Mean fluorescence intensity: 161.63
  Median fluorescence intensity: 125.2
B16.BL6 melanoma cells [2]; reaction 3, 1.9 mg, 1.5 hours
  Mean fluorescence intensity: 167.8
  Median fluorescence intensity: 66.4
B16.BL6 melanoma cells [2]; reaction 4, 58 mg, 1.5 hours
  Share of the cells in the group of higher fluorescence intensity: 4 (15.65% of the cells)
  Share of the cells in the group of lower fluorescence intensity: 4 (84.26% of the cells)
B16.BL6 melanoma cells [2]; [8]
  Mean fluorescence intensity: 770.0
  Median fluorescence intensity: 504.8
B16.BL6 melanoma cells [2]; [9]
  Mean fluorescence intensity: 49.2
  Median fluorescence intensity: 44.1
B16.BL6 melanoma cells [3]; 0.1 mg conjugate added
  Cells marked with GS1B4: 17.64%
  Mean fluorescence intensity of cells marked with GS1B4: 1025.86
B16.BL6 melanoma cells [3]; 1 mg conjugate added
  Cells marked with GS1B4: 2.36%
  Mean fluorescence intensity of cells marked with GS1B4: 342.05
B16.BL6 melanoma cells [3]; 5 mg conjugate added
  Cells marked with GS1B4: 14.56%
  Mean fluorescence intensity of cells marked with GS1B4: 1719.58
B16.BL6 melanoma cells [3]; 25 mg conjugate added
  Cells marked with GS1B4: 31.86%
  Mean fluorescence intensity of cells marked with GS1B4: 2460.67
B16.BL6 melanoma cells [3]; 0.1-25 mg regular trisaccharide probe
  Binding of FITC-labelled GS1B4 to conjugated cells: only a fraction of the conjugated cells bound detectable amounts of FITC-labelled GS1B4
B16.BL6 melanoma cells [4]
  Binding of FITC-labelled GS1B4 to cells: no binding above background levels
